Experimental data taken from PubChem BioAssay AID330 (DTP/NCI, 2004).
Where “and” joins values, the source holds several entries; their conditions need not be identical. Identical values can stand only once. Toxic doses and inconclusive results are not listed. Peptide text beside a SMILES is read from it. * marks the point of attachment. Cbz = O=C(OCc1ccccc1)*

Test system: P388 leukemia ip, CD2F1 mice, survival T/C
Assay: NCI In Vivo Anticancer Drug Screen. Data for tumor model P388 Leukemia (intraperitoneal) in CD2F1 (CDF1) mice
Conditions: endpoint: median survival time, higher = longer survival
Procedure, shortened: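 Mice carrying the transplanted tumor received test compound or vehicle. Survival was recorded in each group, and the value is the treated-group measurement divided by that of the vehicle-treated control group.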

[1] = dose: 50.0 mg/kg/injection, schedule: Q01DX005 (ip), vehicle: saline
[2] = dose: 100.0 mg/kg/injection, schedule: Q01DX005 (ip), vehicle: saline
[3] = dose: 25.0 mg/kg/injection, schedule: Q01DX005 (ip), vehicle: saline with Tween-80
[4] = dose: 50.0 mg/kg/injection, schedule: Q01DX005 (ip), vehicle: saline with Tween-80
[5] = dose: 100.0 mg/kg/injection, schedule: Q01DX005 (ip), vehicle: saline with Tween-80
[6] = dose: 200.0 mg/kg/injection, schedule: Q01DX005 (ip), vehicle: saline with Tween-80

## CC1=C(C)C(=Nc2ccc(N(CCCl)CCCl)cc2)C=CC1=O
dose: 50.0 mg/kg/injection, schedule: Q01DX001 (ip), vehicle: Klucel (hydroxypropylcellulose) (HPC)
  T/C: 97 % of control
dose: 100.0 mg/kg/injection, schedule: Q01DX001 (ip), vehicle: Klucel (hydroxypropylcellulose) (HPC)
  T/C: 100 % of control
dose: 200.0 mg/kg/injection, schedule: Q01DX001 (ip), vehicle: Klucel (hydroxypropylcellulose) (HPC)
  T/C: 114 % of control

## CC(=O)Nc1ccc(/C=N/NC(=O)CNC(=O)c2ccccc2)cc1
dose: 60.0 mg/kg/injection, schedule: Q01DX005 (ip), vehicle: saline with Tween-80
  T/C: 95 % of control
dose: 120.0 mg/kg/injection, schedule: Q01DX005 (ip), vehicle: saline with Tween-80
  T/C: 86 % of control

## [NH-]CC(=O)O.[NH-]CC(=O)O.[Ni+2]
dose: 6.25 mg/kg/injection, schedule: Q01DX005 (ip), vehicle: saline with Tween-80
  T/C: 100 % of control
dose: 12.5 mg/kg/injection, schedule: Q01DX005 (ip), vehicle: saline with Tween-80
  T/C: 100 % of control

## CS(=O)(=O)O/C=C1\C(=O)OC2CCCCC12 (stereo not drawn)
dose: 18.8 mg/kg/injection, schedule: Q01DX009 (ip), vehicle: distilled water + Tween-80
  T/C: 108 % of control
dose: 37.5 mg/kg/injection, schedule: Q01DX009 (ip), vehicle: distilled water + Tween-80
  T/C: 107 % of control and 116 % of control
dose: 75.0 mg/kg/injection, schedule: Q01DX009 (ip), vehicle: distilled water + Tween-80
  T/C: 116 % of control and 118 % of control
dose: 150.0 mg/kg/injection, schedule: Q01DX009 (ip), vehicle: distilled water + Tween-80
  T/C: 120 % of control

## c1ccc2c(c1)Cc1ccccc1N2CCN1CCCCC1
[1]
  T/C: 101 % of control
[2]
  T/C: 104 % of control

## O=C(O)Cn1cc(I)c(=O)c(I)c1
dose: 50.0 mg/kg/injection, schedule: Q01DX009 (ip), vehicle: saline with Tween-80
  T/C: 102 % of control
dose: 100.0 mg/kg/injection, schedule: Q01DX009 (ip), vehicle: saline with Tween-80
  T/C: 112 % of control
dose: 100.0 mg/kg/injection, schedule: Q01DX009 (ip), vehicle: saline
  T/C: 101 % of control
dose: 200.0 mg/kg/injection, schedule: Q01DX009 (ip), vehicle: saline with Tween-80
  T/C: 110 % of control
dose: 200.0 mg/kg/injection, schedule: Q01DX009 (ip), vehicle: saline
  T/C: 105 % of control
dose: 400.0 mg/kg/injection, schedule: Q01DX009 (ip), vehicle: saline with Tween-80
  T/C: 112 % of control
dose: 400.0 mg/kg/injection, schedule: Q01DX009 (ip), vehicle: saline
  T/C: 102 % of control
dose: 600.0 mg/kg/injection, schedule: Q01DX009 (ip), vehicle: saline
  T/C: 101 % of control

## Cc1nc(N)[nH]c(=O)c1CCCCC#N
dose: 60.0 mg/kg/injection, schedule: Q01DX005 (ip), vehicle: Klucel (hydroxypropylcellulose) (HPC)
  T/C: 104 % of control
dose: 120.0 mg/kg/injection, schedule: Q01DX005 (ip), vehicle: Klucel (hydroxypropylcellulose) (HPC)
  T/C: 104 % of control

## CCCC1(CC(=O)OCC)SCCN1C(=O)OCC (stereo not drawn)
[3]
  T/C: 102 % of control
[4]
  T/C: 102 % of control
[5]
  T/C: 102 % of control
[6]
  T/C: 102 % of control

## CC1(C)NC(=O)[C@]2(C[C@@H](O)C=C2CO)O1
dose: 25.0 mg/kg/injection, schedule: Q01DX005 (ip), vehicle: saline
  T/C: 94 % of control
[1]
  T/C: 99 % of control
[2]
  T/C: 93 % of control

## Cc1ccc(-n2nc(C(O)C(O)C(O)CO)c3nc4cc(C)c(C)cc4nc32)cc1 (stereo not drawn)
[3]
  T/C: 98 % of control
[4]
  T/C: 100 % of control and 90 % of control
[5]
  T/C: 102 % of control
[6]
  T/C: 100 % of control

## CSCCC(NC(=O)C(Cc1ccccc1)NC(=O)OCc1ccccc1)C(=O)O (stereo not drawn) (Cbz-Phe-Met-OH; configuration not given here)
[4]
  T/C: 104 % of control
[5]
  T/C: 105 % of control
[6]
  T/C: 97 % of control

## O=C(NNc1c(F)c(F)c(C(F)(F)F)c(F)c1F)c1ccccc1
dose: 50.0 mg/kg/injection, schedule: Q01DX005 (ip), vehicle: Klucel (hydroxypropylcellulose) (HPC)
  T/C: 98 % of control
dose: 100.0 mg/kg/injection, schedule: Q01DX005 (ip), vehicle: Klucel (hydroxypropylcellulose) (HPC)
  T/C: 100 % of control
dose: 200.0 mg/kg/injection, schedule: Q01DX005 (ip), vehicle: Klucel (hydroxypropylcellulose) (HPC)
  T/C: 91 % of control

## N/N=C(/N)[Se]
dose: 6.25 mg/kg/injection, schedule: Q01DX009 (ip), vehicle: saline
  T/C: 101 % of control
dose: 12.5 mg/kg/injection, schedule: Q01DX009 (ip), vehicle: saline
  T/C: 90 % of control

## COC1C(CO)OC(n2c3c(Cl)cccc3c3c4c(c5c6cccc(Cl)c6[nH]c5c32)C(=O)NC4=O)C(O)C1O (stereo not drawn)
[3]
  T/C: 155 % of control
dose: 50.0 mg/kg/injection, schedule: Q01DX005 (ip), vehicle: distilled water + Tween-80
  T/C: 152 % of control
[4]
  T/C: 155 % of control
dose: 100.0 mg/kg/injection, schedule: Q01DX005 (ip), vehicle: distilled water + Tween-80
  T/C: 158 % of control
[5]
  T/C: 155 % of control
dose: 200.0 mg/kg/injection, schedule: Q01DX005 (ip), vehicle: distilled water + Tween-80
  T/C: 152 % of control
[6]
  T/C: 159 % of control
dose: 400.0 mg/kg/injection, schedule: Q01DX005 (ip), vehicle: saline with Tween-80
  T/C: 182 % of control

## NNc1ncnc2ccc(Cl)cc12
dose: 50.0 mg/kg/injection, schedule: Q01DX009 (ip), vehicle: Klucel (hydroxypropylcellulose) (HPC)
  T/C: 111 % of control
dose: 100.0 mg/kg/injection, schedule: Q01DX009 (ip), vehicle: Klucel (hydroxypropylcellulose) (HPC)
  T/C: 111 % of control
dose: 200.0 mg/kg/injection, schedule: Q01DX009 (ip), vehicle: Klucel (hydroxypropylcellulose) (HPC)
  T/C: 113 % of control
